# Patent US9469616B2, “Cyclic compounds and methods of making and using the same” (Cellceutix Corporation, priority 2011, dated 2016)
# “And” between values parts separate entries of the source, which are not always exact repeats. Identical values can stand only once.
# Legend:
# [1] = system: P. aeruginosa (10145); assay: MIC assay (Table 1); assay type: cell-based; settings: Pseudomonas aeruginosa, isolate 10145
# [2] = system: human RBCs; assay type: cell-based; settings: 1 h, pH 7.4
# Source text: (§1) A new series of aryl compounds was designed to evaluate the effect of charge and aromatic group hydrophobicity on the biological activity while still maintaining an amphiphilic topology. Four and six cationic charges were investigated, and three different central rings were used to tune the overall hydrophobicity: benzene, naphthalene, and phenylbenzene. The hydrophobicities of the aryl compounds were quantified using reversed-phase HPLC retention times (Rt). The antimicrobial activities (expressed as minimum inhibitory concentration (MIC)) of these compounds were tested against four pathogens, including both Gram-negative and Gram-positive bacteria, and their hemolysis (evaluated in terms of HC50, the lowest concentration that causes 50% hemolysis of red blood cells (RBCs)) was tested against human RBCs.
# Cytotoxicity of the compounds is also evaluated in a hemolysis assay using human erythrocytes. Pooled whole human blood is centrifuged to separate the red blood cells (RBC). The isolated RBCs are rinsed and diluted in Tris-buffered saline (TBS buffer, pH 7.4) to obtain a 0.22% RBC stock suspension. 5 μL of a Compound stock solution is added to 45 μL of RBC suspension and incubated with shaking for 1 hour at 37° C. At the conclusion of the incubation time, samples are centrifuged and 30 μL of the supernatant is added to 100 μL of water. OD414 measurements are read for hemoglobin concentration. The bee venom peptide melittin is used as a positive control. EC50 values are determined as described above.
# Cytotoxicity is also evaluated in a hemolysis assay using isolated human erythrocytes. Pooled whole human blood is centrifuged to separate the red blood cells (RBC). The isolated RBCs are rinsed and diluted in Tris-buffered saline (TBS buffer, pH 7.4) to obtain a 0.22% RBC stock suspension. […] OD405 measurements are read for hemoglobin concentration. […] EC50 values are determined using a four parameter logistic equation: Y=Bottom+(Top−Bottom)/(1+10^((Log EC50−X)*HillSlope)).
# [3] = system: S. aureus (27660); assay: MIC assay (Table 1); assay type: cell-based; settings: Staphylococcus aureus, isolate 27660
# [4] = system: E. coli (25922); assay: MIC assay (Table 1); assay type: cell-based; settings: Escherichia coli, isolate 25922
# [5] = system: RAW 264.7 cells; assay: Cytokine production in RAW 264.7 cells (ELISA); assay type: cell-based, murine
# [6] = system: primary murine bone marrow-derived macrophages (BMDMs); assay: Cytokine and chemokine production in BMDM cells; assay type: cell-based, mouse
# Source text: The specific self-agonistic effect of Compound 116 along with its elevated agonistic effect with LPS stimulation in RAW 264.7 cells prompted evaluation of Compound 116 activity in primary murine bone marrow-derived macrophages (BMDMs). […] This observation is very similar to the immunomodulatory effect of Compound 116 in RAW 264.7 cells.
# It was previously reported that the protective activity of a synthetic cationic peptide against bacterial infection was associated with the induction of chemokines such as CXCL1 from macrophages and/or monocytes. Thus, the ability of this nontoxic, nonpeptidic, antimicrobial compound to modulate both cytokine and chemokine production is encouraging for the design of synthetic molecules with multiple biological functions.
# [7] = system: E. faecalis (29212); assay: MIC assay (Table 1); assay type: cell-based; settings: Enterococcus faecalis, isolate 29212
# Method: (§2) The compounds are screened for antimicrobial activity against a number of clinically relevant pathogens. Minimum Inhibitory Concentrations (MIC) of each of the compounds are determined using standard procedures for clinical ocular isolates of Ciprofloxacin Susceptible (CS) S. aureus (CSSA), Ciprofloxacin Resistant (CR) S. aureus (CRSA), CS S. epidermidis (CSSE), CR S. epidermidis (CRSE), St. pneumoniae (SP), St. viridans group (SV), Moraxella Species (MS) (including Moraxella catarrhalis), H. influenzae (HI), P. aeruginosa (PA), Serratia marcescens (SM), S. aureus fluoroquinolone-susceptible, S. aureus fluoroquinolone-resistant, S. epidermidis (Coagulase-negative Staphylococcus) fluoroquinolone-susceptible, S. epidermidis (Coagulase-negative Staphylococcus) fluoroquinolone-resistant, and Serratia marcescens.
# (§3) On the day of testing, a 640 μg/m (1280 μg/m for Serratia marcescens and Pseudomonas aeruginosa) concentration is prepared from a 1% stock solution in 0.01% acetic acid, 0.2% BSA in polypropylene tubes.
# (§4) Ten μl of diluted 10× test agents is added to each well of one row of the 96 well polypropylene plates from column 2 to column 12 (column 1 is a control for bacteria alone, with no peptide). […] The same peptide is in each of the 8 rows. One plate contains dilutions of one test agent and 8 bacterial isolates.
# (§5) Ninety μl of the bacterial suspensions is dispensed in each well from column 1 to column 12. Each bacterial isolate is placed in one row of a 96 well polypropylene plate containing the test agents. The plates are placed on shaker at 15 minutes at room temperature, and then incubated at 37° C. overnight. MICs are determined visually as the lowest concentration of drug that inhibits visible bacterial growth.
# (§6) Data is expressed as MIC50 in μg/ml. The bacterial isolates were as follows: E. coli (25922); S. aureus (27660); E. faecalis (29212); P. aeruginosa (10145); and K. pneumoniae (13883).
# [8] = system: K. pneumoniae (13883); assay: MIC assay (Table 1); assay type: cell-based; settings: Klebsiella pneumoniae, isolate 13883, read-out: MIC50 K. Pnuemnoiae
# Method: as §2, §3, §4, §5, §6
# [9] = system: Staphylococcus aureus; assay: Antimicrobial activity (MIC) of aryl compounds (Table 2); assay type: cell-based
# Source text: as §1
# [10] = system: Escherichia coli; assay: as above; assay type: cell-based
# Source text: as §1
compound,measurement,setting,value
NCCCOc1cc(-c2ccc3ccc(-c4cc(OCCCN)c(OCCCN)c(OCCCN)c4)cc3c2)cc(OCCCN)c1OCCCN [Compound 116],MIC50,[1],25 µg/mL
same,HC50,[2],656 µg/mL
same,MIC50,[3],3.13 µg/mL
same,MIC50,[4],3.13 µg/mL
same,LPS-induced TNF production,"[5]; 5.0 μg/mL preincubation 1 hour, LPS 100 ng/mL 18 hours, FIG. 1B",increased
same,LPS-induced IL-6 production,"[5]; 5.0 μg/mL preincubation 1 hour, LPS 100 ng/mL 18 hours, FIG. 1C",increased
same,LPS-induced IL-10 production,"[5]; 5.0 μg/mL preincubation 1 hour, LPS 100 ng/mL 18 hours, FIG. 1D",inhibited the production of the anti-inflammatory cytokine IL 10 to background levels
same,TNF production,"[5]; 5.0 μg/mL, without LPS, FIG. 1A",induced TNF production
same,LPS-induced TNF production with externally added rIL-10,"[5]; preincubated with mouse rIL-10 50 ng/mL, 5.0 μg/mL compound, LPS 100 ng/mL, FIG. 2",abrogation of Compound 116's capacity to enhance TNF production
same,TNF level with externally added rIL-10,"[5]; preincubated with mouse rIL-10 50 ng/mL, 5.0 μg/mL compound, without LPS, FIG. 2",only a slight decrease in the overall TNF level
same,LPS-induced TNF production,"[6]; 5.0 μg/mL preincubation 1 hour, LPS 100 ng/mL 15 hours, FIG. 3A",significantly increased
same,LPS-induced IL-10 production,"[6]; 5.0 μg/mL preincubation 1 hour, LPS 100 ng/mL 15 hours, FIG. 3B",inhibited
same,TNF production,"[6]; 5.0 μg/mL, in the absence of LPS, FIG. 3A",30 pg/mL
same,murine KC (chemokine CXCL1) levels,"[6]; 5.0 μg/mL, relative to the DMSO control, FIG. 3C",significantly higher levels
same,MIC50,[7],25 µg/mL
same,MIC50,[8],25 µg/mL
same,Selectivity (HC50/MIC) S. aureus,[9]; HC50/MIC,200 and 209.6
same,"selectivity, times higher than the selectivity of MSI-78","[9]; S. aureus and E. coli, relative to MSI-78",~20 times
same,MIC,"[9]; Staphylococcus aureus, Table 2, read-out: MIC S. aureus",3.13 µg/mL
same,MIC S. aureus,[9]; Table 2,≈ 3 μg/ml
same,MIC,"[10]; Escherichia coli, Table 2",3.13 µg/mL
same,Selectivity (HC50/MIC) E. coli,[10]; HC50/MIC,200 and 209.6
same,MIC E. coli,[10]; Table 2,≈ 3 μg/ml
